Measurements published in US9346815B2, “5-chloro-2-difluoromethoxyphenyl pyrazolopyrimidine compounds, compositions and methods of use thereof” (Genentech, Inc., priority 2014, dated 2016).
Structures can show the parent of a compound that is named as a salt.

How the values were obtained:
[1] = biological target: isolated recombinant JAK1 kinase domain (Homo sapiens (Human), UniProt P23458); experiment: JAK1 enzyme assay (Caliper LabChip, peptide phosphorylation); assay type: biochemical; conditions: isolated recombinant JAK1 kinase domain, 25 μM ATP
[2] = biological target: isolated recombinant JAK2 kinase domain (Homo sapiens (Human), UniProt O60674); experiment: JAK2 enzyme assay (Caliper LabChip, peptide phosphorylation); assay type: biochemical; conditions: 25 μM ATP
[3] = system: JAK1-dependent STAT6 phosphorylation downstream of IL-13 stimulation in TF-1 human erythroleukemia cells; experiment: JAK1 pathway assay in TF-1 cells (IL-13-pSTAT6, MSD); assay type: cell-based; conditions: Homo sapiens, TF-1, TF-1 cells, read-out: IL13-pSTAT6 EC50_TF-1
Method in brief: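 BEAS-2B: complete growth medium, compound 1 hr at 37° C. TF-1: GM-CSF-starved overnight, serum-free OptiMEM, compound 30 min.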

[4] = system: JAK1-dependent STAT6 phosphorylation downstream of IL-13 stimulation in BEAS-2B human bronchial epithelial cells; experiment: JAK1 pathway assay in BEAS-2B cells (IL-13-pSTAT6, MSD); assay type: cell-based; conditions: read-out: IL13-pSTAT6 EC50 (uM)_BEAS-2B
Description: JAK1 Pathway Assay in Cell Lines was Carried Out as Follows:
Inhibitor potency (EC50) was determined in cell-based assays designed to measure JAK1 dependent STAT phosphorylation.
In one assay approach, TF-1 human erythroleukemia cells obtained from the American Type Culture Collection (ATCC; Manassas, Va.) were used to measure JAK1-dependent STAT6 phosphorylation downstream of IL-13 stimulation. Prior to use in the assays, TF-1 cells were starved of GM-CSF overnight in OptiMEM medium (Life Technologies, Grand Island, N.Y.) supplemented with 0.5% charcoal/dextran stripped fetal bovine serum (FBS), 0.1 mM non-essential amino acids (NEAA), and 1 mM sodium pyruvate. The assays were run in 384-well plates in serum-free OptiMEM medium using 300,000 cells per well. In a second assay approach, BEAS-2B human bronchial epithelial cells obtained from ATCC were plated at 100,000 cells per well of a 96-well plate one day prior to the experiment. The BEAS-2B assay was run in complete growth medium (bronchial epithelial basal medium plus bulletkit; Lonza; Basel, Switzerland).
Test compounds were serially diluted 1:2 in DMSO and then diluted 1:50 in medium just before use. Diluted compounds were added to the cells, for a final DMSO concentration of 0.2%, and incubated for 30 min (for the TF-1 assay) or 1 hr (for the BEAS-2B assay) at 37° C. Then, cells were stimulated with human recombinant cytokine at their respective EC90 concentrations, as previously determined for each individual lot. Cells were stimulated with IL-13 (R&D Systems, Minneapolis, Minn.) for 15 min at 37° C. The TF-1 cell reactions were stopped by the direct addition of 10× lysis buffer (Cell Signaling Technologies, Danvers, Mass.), whereas the BEAS-2B cell incubations were halted by the removal of medium and addition of 1× lysis buffer. The resultant samples were frozen in the plates at −80° C. Compound mediated inhibition of STAT6 phosphorylation was measured in the cell lysates using MesoScale Discovery (MSD) technology (Gaithersburg, Md.).

Sequence of isolated recombinant JAK1 kinase domain (P23458 875-1153): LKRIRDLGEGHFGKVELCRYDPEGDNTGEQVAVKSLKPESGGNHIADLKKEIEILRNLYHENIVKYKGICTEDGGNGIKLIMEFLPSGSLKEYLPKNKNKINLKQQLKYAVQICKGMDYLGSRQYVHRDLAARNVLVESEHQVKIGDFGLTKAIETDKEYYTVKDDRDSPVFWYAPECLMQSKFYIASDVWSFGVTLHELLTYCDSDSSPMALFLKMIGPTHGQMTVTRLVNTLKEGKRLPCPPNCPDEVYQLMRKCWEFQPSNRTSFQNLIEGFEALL
Sequence of isolated recombinant JAK2 kinase domain (O60674 849-1124): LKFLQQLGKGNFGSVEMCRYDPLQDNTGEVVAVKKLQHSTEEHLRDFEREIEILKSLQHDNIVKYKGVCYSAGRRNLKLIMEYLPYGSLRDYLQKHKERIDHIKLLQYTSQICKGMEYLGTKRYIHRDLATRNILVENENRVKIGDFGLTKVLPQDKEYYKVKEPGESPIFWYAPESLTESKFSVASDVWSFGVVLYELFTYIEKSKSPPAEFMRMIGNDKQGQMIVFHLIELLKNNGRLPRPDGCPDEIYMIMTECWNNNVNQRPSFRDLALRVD

Ki [1] [nM] | Ki [2] [nM] | EC50 [3] [nM] | SMILES | EC50 [4] [µM]
0.73 | 0.44 | 32.3 | Nc1nn2cccnc2c1C(=O)Nc1cn(CC(=O)N2CCNCC2)nc1-c1cc(Cl)ccc1OC(F)F [Example 249, 2-amino-N-[3-[5-chloro-2-(difluoromethoxy)phenyl]-1-(2-oxo-2-piperazin-1-yl-ethyl)pyrazol-4-yl]pyrazolo[1,5-a]pyrimidine-3-carboxamide] | 
0.56 | 0.41 | 18.3 | CN(C)C1CCN(C(=O)c2ccc(-c3nc(-c4cc(Cl)ccc4OC(F)F)c(NC(=O)c4cnn5cccnc45)s3)cc2)CC1 [Example 253, Pyrazolo[1,5-a]pyrimidine-3-carboxylic acid {4-(5-chloro-2-difluoromethoxy-phenyl)-2-[4-(4-dimethylamino-piperidine-1-carbonyl)-phenyl]-thiazol-5-yl}-amide hydrochloride] | 
1.63 | 0.77 | 117 | O=C(Nc1sc(-c2ccncc2)nc1-c1cc(Cl)ccc1OC(F)F)c1cnn2cccnc12 [Example 254, N-[4-[5-chloro-2-(difluoromethoxy)phenyl]-2-(4-pyridyl)thiazol-5-yl]pyrazolo[1,5-a]pyrimidine-3-carboxamide] | 
0.56 | 0.4 | 86.2 | CN(C)Cc1ccc(-c2nc(-c3cc(Cl)ccc3OC(F)F)c(NC(=O)c3cnn4cccnc34)s2)cc1 [Example 255, N-[4-[5-chloro-2-(difluoromethoxy)phenyl]-2-[4-[(dimethylamino)methyl]phenyl]thiazol-5-yl]pyrazolo[1,5-a]pyrimidine-3-carboxamide] | 
1.31 | 0.95 | 92 | O=C(Nc1sc(-c2ccc(CN3CC(F)C3)cc2)nc1-c1cc(Cl)ccc1OC(F)F)c1cnn2cccnc12 [Example 256, N-[4-[5-chloro-2-(difluoromethoxy)phenyl]-2-[4-[(3-fluoroazetidin-1-yl)methyl]phenyl]thiazol-5-yl]pyrazolo[1,5-a]pyrimidine-3-carboxamide] | 
2.93 | 2.1 | 1000 | O=C(Nc1sc(-c2ccc(CN3CC(F)(F)C3)cc2)nc1-c1cc(Cl)ccc1OC(F)F)c1cnn2cccnc12 [Example 257, N-[4-[5-chloro-2-(difluoromethoxy)phenyl]-2-[4-[(3,3-difluoroazetidin-1-yl)methyl]phenyl]thiazol-5-yl]pyrazolo[1,5-a]pyrimidine-3-carboxamide] | 
1.17 | 0.72 | 71 | CN1CCN(c2ccc(-c3nc(-c4cc(Cl)ccc4OC(F)F)c(NC(=O)c4cnn5cccnc45)s3)cc2)CC1 [Example 258, N-[4-[5-chloro-2-(difluoromethoxy)phenyl]-2-[4-(4-methylpiperazin-1-yl)phenyl]thiazol-5-yl]pyrazolo[1,5-a]pyrimidine-3-carboxamide] | 
0.93 | 0.56 | 13 | CN1CCN(C(=O)c2ccc(-c3nc(-c4cc(Cl)ccc4OC(F)F)c(NC(=O)c4cnn5cccnc45)s3)cc2)CC1 [Example 259, N-[4-[5-chloro-2-(difluoromethoxy)phenyl]-2-[4-(4-methylpiperazine-1-carbonyl)phenyl]thiazol-5-yl]pyrazolo[1,5-a]pyrimidine-3-carboxamide] | 
7.74 | 2.65 | 68.5 | CN(C)C1CCN(Cc2nc(-c3cc(Cl)ccc3OC(F)F)c(NC(=O)c3cnn4cccnc34)s2)CC1 [Example 260, Pyrazolo[1,5-a]pyrimidine-3-carboxylic acid [4-(5-chloro-2-difluoromethoxy-phenyl)-2-(4-dimethylamino-piperidin-1-ylmethyl)-thiazol-5-yl]-amide] | 
5.84 | 1.73 | 62.7 | CN1C[C@@H]2CN(Cc3nc(-c4cc(Cl)ccc4OC(F)F)c(NC(=O)c4cnn5cccnc45)s3)C[C@@H]2C1 [Example 262, N-[2-[[(3aR,6aS)-2-methyl-1,3,3a,4,6,6a-hexahydropyrrolo[3,4-c]pyrrol-5-yl]methyl]-4-[5-chloro-2-(difluoromethoxy)phenyl]thiazol-5-yl]pyrazolo[1,5-a]pyrimidine-3-carboxamide] | 
2.69 | 2.38 | 19.8 | CN1C[C@@H]2CN(C(=O)c3nc(-c4cc(Cl)ccc4OC(F)F)c(NC(=O)c4cnn5cccnc45)s3)C[C@@H]2C1 [Example 264, Pyrazolo[1,5-a]pyrimidine-3-carboxylic acid [4-(5-chloro-2-difluoromethoxy-phenyl)-2-(5-methyl-hexahydro-pyrrolo[3,4-c]pyrrole-2-carbonyl)-thiazol-5-yl]-amide] | 
3.63 | 4.29 | 22.8 | CN(C)C1CCN(C(=O)c2nc(-c3cc(Cl)ccc3OC(F)F)c(NC(=O)c3cnn4cccnc34)s2)CC1 [Example 265, N-[4-[5-chloro-2-(difluoromethoxy)phenyl]-2-[4-(dimethylamino)piperidine-1-carbonyl]thiazol-5-yl]pyrazolo[1,5-a]pyrimidine-3-carboxamide] | 
0.24 | 0.1 | 5.9 | Nc1nn2cccnc2c1C(=O)Nc1cn(CC(=O)N2CCC(CO)CC2)nc1-c1cc(Cl)ccc1OC(F)F [Example 266, 2-amino-N-[3-[5-chloro-2-(difluoromethoxy)phenyl]-1-[2-[4-(hydroxymethyl)-1-piperidyl]-2-oxo-ethyl]pyrazol-4-yl]pyrazolo[1,5-a]pyrimidine-3-carboxamide] | 
0.66 | 0.62 | 35.8 | O=C(Nc1cn(CC(=O)N2CCC[C@H]2C(O)CO)nc1-c1cc(Cl)ccc1OC(F)F)c1cnn2cccnc12 (stereo partly drawn) [Example 267, N-[3-[5-chloro-2-(difluoromethoxy)phenyl]-1-[2-[(2S)-2-(1,2-dihydroxyethyl)pyrrolidin-1-yl]-2-oxo-ethyl]pyrazol-4-yl]pyrazolo[1,5-a]pyrimidine-3-carboxamide] | 
0.6 | 1.11 | 16.2 | CN(C)C1CCN(C(=O)c2ccc(-n3cc(NC(=O)c4cnn5cccnc45)c(-c4cc(Cl)ccc4OC(F)F)n3)cc2)CC1 [Example 302, Pyrazolo[1,5-a]pyrimidine-3-carboxylic acid {3-(5-chloro-2-difluoromethoxy-phenyl)-1-[4-(4-dimethylamino-piperidine-1-carbonyl)-phenyl]-1H-pyrazol-4-yl}-amide hydrochloride] | 
1.9 | 3.28 | 78.4 | CN(CC(F)(F)F)C1CCN(C(=O)c2ccc(-n3cc(NC(=O)c4cnn5cccnc45)c(-c4cc(Cl)ccc4OC(F)F)n3)cc2)CC1 [Example 303, N-[3-[5-chloro-2-(difluoromethoxy)phenyl]-1-[4-[4-[methyl(2,2,2-trifluoroethyl)amino]piperidine-1-carbonyl]phenyl]pyrazol-4-yl]pyrazolo[1,5-a]pyrimidine-3-carboxamide] | 
 |  |  | CCOC(=O)CCN1CCN(C(=O)Cn2cc(NC(=O)c3cnn4cccnc34)c(-c3cc(Cl)ccc3OC(F)F)n2)CC1 [Example 332] | 0.0692
 |  |  | O=C(Nc1cn([C@@H]2CNCC[C@H]2O)nc1-c1cc(Cl)ccc1OC(F)F)c1cnn2cccnc12 [Example 360, N-[3-[5-chloro-2-(difluoromethoxy)phenyl]-1-[(3R,4R)-4-hydroxypiperidin-3-yl]-1H-pyrazol-4-yl]pyrazolo[1,5-a]pyrimidine-3-carboxamide] | 0.0366
 |  |  | O=C(Nc1cn([C@H]2CNCC[C@@H]2O)nc1-c1cc(Cl)ccc1OC(F)F)c1cnn2cccnc12 [Example 361, N-[3-[5-chloro-2-(difluoromethoxy)phenyl]-1-[(3S,4S)-4-hydroxypiperidin-3-yl]-1H-pyrazol-4-yl]pyrazolo[1,5-a]pyrimidine-3-carboxamide] | 0.0273
 |  |  | CCN[C@@H](C)Cn1cc(NC(=O)c2cnn3cccnc23)c(-c2cc(Cl)ccc2OC(F)F)n1 [Example 371, N-[3-[5-chloro-2-(difluoromethoxy)phenyl]-1-[(2S)-2-(ethylamino)propyl]-1H-pyrazol-4-yl]pyrazolo[1,5-a]pyrimidine-3-carboxamide] | 0.0146
